Measured values reported in patent publication US20230026611A1, “ARYL HETEROCYCLIC COMPOUNDS AS Kv1.3 POTASSIUM SHAKER CHANNEL BLOCKERS” (D. E. Shaw Research, LLC, priority 2019, published 2023).

Assays:
hERG channel = hERG channel (Homo sapiens, UniProt Q12809); experiment: hERG electrophysiology, automated whole-cell patch clamp (Patchliner) in CHO-K1 cells stably expressing hERG
Method: Evaluation of hERG Activities
This assay is used to evaluate the disclosed compounds's inhibition activities against the hERG channel.
CHO-K1 cells stably expressing hERG were grown in Ham's F-12 Medium with glutamine containing 10% heat-inactivated FBS, 1% penicillin/streptomycin, hygromycin (100 μg/ml) and G418 (100 μg/ml). Cells were grown in culture flasks at 37° C. in a 5% CO2-humidified incubator.
The cells were bathed in an extracellular solution containing 140 mM NaCl, 4 mM KCl, 2 mM CaCl2), 1 mM MgCl2, 5 mM Glucose, 10 mM HEPES; pH adjusted to 7.4 with NaOH; 295-305 mOsm. The internal solution contained 50 mM KCl, 10 mM NaCl, 60 mM KF, 20 mM EGTA, 10 mM HEPES; pH adjusted to 7.2 with KOH; 285 mOsm. All compounds were dissolved in DMSO at 30 mM. Compound stock solutions were freshly diluted with external solution to concentrations of 30 nM, 100 nM, 300 nM, 1 μM, 3 μM, 10 μM, 30 μM and 100 μM. The highest content of DMSO (0.3%) was present in 100 μM.
The voltage protocol (see Table B) was designed to simulate voltage changes during a cardiac action potential with a 300 ms depolarization to +20 mV (analogous to the plateau phase of the cardiac action potential), a repolarization for 300 ms to −50 mV (inducing a tail current) and a final step to the holding potential of −80 mV. The pulse frequency was 0.3 Hz. Control (compound-free) and compound pulse trains for each compound concentration applied contained 70 pulses.
Whole-cell current recordings and compound application were enabled by means of an automated patch clamp platform Patchliner (Nanion). EPC 10 patch clamp amplifier (HEKA) along with Patchmaster software (HEKA Elektronik Dr. Schulze GmbH) was used for data acquisition. Data were sampled at 10 kHz without filtering. Increasing compound concentrations were applied consecutively to the same cell without washouts in between.
AUC and PEAK values were obtained with Patchmaster (HEKA Elektronik Dr. Schulze GmbH). To determine IC50 the last single pulse in the pulse train corresponding to a given compound concentration was used. Obtained AUC and PEAK values in the presence of compound were normalized to control values in the absence of compound. Using Origin (OridinLab), IC50 was derived from data fit to Hill equation: Icompound/control=(100−A)/(1+([compound]/IC50)nH)+A, where IC50 is the concentration at which current inhibition is half-maximal, [compound] is the applied compound concentration, A is the fraction of current that is not blocked and nH is the Hill coefficient.

Kv1.3 potassium channel = target: T1, Kv1.3 potassium channel (Homo sapiens, UniProt P22001); experiment: Kv1.3 potassium channel blocker activity, automated whole-cell patch clamp (Patchliner) in CHO-K1 cells stably expressing Kv1.3; type: cell-based; details: CHO-K1 cells stably expressing Kv1.3; patch clamp, current inhibition; read-out: Kv1.3 IC50
T1 construct: expressed in transfected cells
T1 sequence (P22001 whole entry): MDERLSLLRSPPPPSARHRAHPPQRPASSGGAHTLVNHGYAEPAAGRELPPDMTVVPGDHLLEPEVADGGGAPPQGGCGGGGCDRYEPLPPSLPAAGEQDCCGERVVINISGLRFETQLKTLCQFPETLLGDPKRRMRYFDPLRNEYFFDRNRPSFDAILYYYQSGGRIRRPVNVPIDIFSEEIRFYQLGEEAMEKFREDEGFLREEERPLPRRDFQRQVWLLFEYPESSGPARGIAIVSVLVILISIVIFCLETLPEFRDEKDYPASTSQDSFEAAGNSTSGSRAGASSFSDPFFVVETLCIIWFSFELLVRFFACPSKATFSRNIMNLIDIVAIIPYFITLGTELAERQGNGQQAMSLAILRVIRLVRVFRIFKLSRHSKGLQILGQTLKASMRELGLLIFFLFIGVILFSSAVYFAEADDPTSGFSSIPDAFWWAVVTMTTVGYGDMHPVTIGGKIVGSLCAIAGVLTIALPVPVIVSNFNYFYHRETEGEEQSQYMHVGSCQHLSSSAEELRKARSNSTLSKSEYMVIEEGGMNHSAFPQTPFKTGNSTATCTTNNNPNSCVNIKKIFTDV
Method: Example 82. Evaluation of Kv1.3 potassium channel blocker activities
This assay is used to evaluate the disclosed compounds' activities as Kv1.3 potassium channel blockers.
CHO-K1 cells stably expressing Kv1.3 were grown in DMEM containing 10% heat-inactivated FBS, 1 mM sodium pyruvate, 2 mM L-glutamine, and G418 (500 μg/ml).
All compounds were dissolved in DMSO at 30 mM.
The currents were evoked by applying 100 ms depolarizing pulses from −90 mV (holding potential) to +40 mV were applied with 0.1 Hz frequency. […] 10-second breaks were used between pulse trains (see Table A below).
Data were sampled at 10 kHz without filtering. Passive leak currents were subtracted online using a P/4 procedure (HEKA Elektronik Dr. Schulze GmbH). […] Total compound incubation time before the next pulse train was not longer than 10 seconds. Peak current inhibition was observed during compound equilibration.

Sequence of hERG channel (Q12809 whole entry): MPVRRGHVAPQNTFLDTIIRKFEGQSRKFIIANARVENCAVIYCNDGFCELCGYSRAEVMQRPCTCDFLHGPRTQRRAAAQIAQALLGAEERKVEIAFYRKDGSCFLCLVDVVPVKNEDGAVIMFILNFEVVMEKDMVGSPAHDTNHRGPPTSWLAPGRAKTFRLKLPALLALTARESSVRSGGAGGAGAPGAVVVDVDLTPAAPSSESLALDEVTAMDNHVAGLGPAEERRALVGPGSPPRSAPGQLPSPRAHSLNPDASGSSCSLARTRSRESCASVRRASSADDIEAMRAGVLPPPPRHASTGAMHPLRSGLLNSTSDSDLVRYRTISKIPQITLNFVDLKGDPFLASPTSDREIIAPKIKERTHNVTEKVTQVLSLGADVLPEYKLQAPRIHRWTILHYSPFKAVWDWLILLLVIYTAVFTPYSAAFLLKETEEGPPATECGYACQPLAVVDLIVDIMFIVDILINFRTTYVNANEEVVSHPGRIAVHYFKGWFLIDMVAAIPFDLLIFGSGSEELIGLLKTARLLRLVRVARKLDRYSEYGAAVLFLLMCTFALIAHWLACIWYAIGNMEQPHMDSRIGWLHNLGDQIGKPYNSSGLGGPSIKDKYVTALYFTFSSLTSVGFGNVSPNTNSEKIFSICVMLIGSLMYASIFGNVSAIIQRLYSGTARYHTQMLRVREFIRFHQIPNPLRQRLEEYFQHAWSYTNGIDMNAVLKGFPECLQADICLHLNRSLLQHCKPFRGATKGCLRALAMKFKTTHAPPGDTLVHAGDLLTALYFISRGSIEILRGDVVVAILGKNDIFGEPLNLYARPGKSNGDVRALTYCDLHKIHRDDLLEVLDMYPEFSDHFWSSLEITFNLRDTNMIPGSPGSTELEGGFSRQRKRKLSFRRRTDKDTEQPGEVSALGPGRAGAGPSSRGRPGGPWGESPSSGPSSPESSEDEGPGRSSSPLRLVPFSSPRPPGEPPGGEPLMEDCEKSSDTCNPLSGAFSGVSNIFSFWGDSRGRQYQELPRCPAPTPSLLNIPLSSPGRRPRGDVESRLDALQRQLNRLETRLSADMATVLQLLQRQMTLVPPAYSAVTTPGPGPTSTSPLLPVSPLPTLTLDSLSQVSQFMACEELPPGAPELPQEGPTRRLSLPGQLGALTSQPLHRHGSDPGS

Compound | IC50 (Kv1.3 potassium channel) [µM] | IC50 (hERG channel) [µM]
O=C(NC1CNC1)C1CCC(c2c(O)ccc(Cl)c2Cl)NC1 (stereo not drawn) [Compound 125, N-(azetidin-3-yl)-6-(2,3-dichloro-6-hydroxyphenyl)piperidine-3-carboxamide] | < 10 | > 100
O=C(CO)N1CCC(c2c(O)cc(Cl)c(Cl)c2Cl)CC1 [Compound 93, 2-hydroxy-1-[4-(2,3,4-trichloro-6-hydroxyphenyl)piperidin-1-yl]ethan-1-one] | < 1 | < 30
Oc1ccc2ccccc2c1C1CCNCC1 [Compound 18, 1-(piperidin-4-yl)naphthalen-2-ol] | < 1 | < 30
NCC1CN(c2cc(Cl)c(Cl)cc2O)C1 [Compound 31, 2-(3-(aminomethyl)aze-tidin-1-yl)-4,5-dichlorophenol] | < 1 | < 30
OCC1CC(c2cc(Cl)c(Cl)cc2O)CN1 (stereo not drawn) [Compound 36, 4,5-dichloro-2-(5-(hydroxymethyl)pyrrolidin-3-yl)phenol] | < 10 | < 30
O=C([C@H](O)CO)N1CCC(c2c(O)ccc(Cl)c2Cl)CC1 [Compound 2, (2R)-1-[4-(2,3-dichloro-6-hydroxyphenyl)piperidin-1-yl]-2,3-dihydroxypropan-1-one] | < 1 | > 30
Oc1cc(Cl)c(Cl)cc1C1CCNC1 (stereo not drawn) [Compound 21, 4,5-dichloro-2-(pyrrolidin-3-yl)phenol] | < 1 | < 30
O=C(C[C@H]1C[C@@H](c2c(O)ccc(Cl)c2Cl)CCN1)N1CCOCC1 (relative stereo) [Compound 113, 2-[4-(2,3-dichloro-6-hydroxyphenyl)piperidin-2-yl]-1-(morpholin-4-yl)ethan-1-one] | < 1 | > 30
NCC(=O)N1CCC(c2c(O)cc(Cl)c(Cl)c2Cl)CC1 [Compound 98, 2-amino-1-[4-(2,3,4-trichloro-6-hydroxyphenyl)piperidin-1-yl]ethan-1-one] | < 1 | < 30
CN(C)C1CCN(c2cc(Cl)c(Cl)cc2O)CC1 [Compound 23, 4,5-dichloro-2-[4-(dimethylamino)piperidin-1-yl]phenol] | < 1 | < 30
O=C([C@H]1CCNC1)N1CCC(c2c(O)cc(Cl)c(Cl)c2Cl)CC1 [Compound 91, 3,4,5-trichloro-2-[1-[(3S)-pyrrolidine-3-carbonyl]piperidin-4-yl]phenol] | < 1 | < 30
Nc1nnc(C2CC(c3c(O)ccc(Cl)c3Cl)CCN2)o1 [Compound 99, (2R,4S)-rel-2-(2-(5-amino-1,3,4-oxadiazol-2-yl)piperidin-4-yl)-3,4-dichlorophenol] | < 1 | > 30
Oc1cc(Cl)c(Cl)c(Cl)c1C1CCNCC1 [Compound 44, 3,4,5-trichloro-2-(piperidin-4-yl)phenol] | < 1 | < 30
OCC1CC(c2cc(Cl)c(Cl)cc2O)CCN1 (stereo not drawn) [Compound 27, 4,5-dichloro-2-[2-(hydroxymethyl)piperidin-4-yl]phenol] | < 10 | > 30
NC(=O)[C@H]1C[C@@H](c2c(O)cc(Cl)c(Cl)c2Cl)CCN1 (single isomer, unassigned) [Compound 65] | < 1 | < 30
Oc1c(C2CCNCC2)cc(Cl)c(Cl)c1Cl [Compound 54, 2,3,4-trichloro-6-(piperidin-4-yl)phenol] | < 10 | < 30
Oc1cc(Cl)c(Cl)cc1C1CCNC(C2CC2)C1 (stereo not drawn) [Compound 43, 4,5-dichloro-2-(2-cyclopropylpiperidin-4-yl)phenol] | < 1 | < 30
Oc1cc(Cl)c(Cl)cc1C1=CCNCC1 [Compound 9, 4,5-dichloro-2-(1,2,3,6-tetrahydropyridin-4-yl)phenol] | < 1 | < 30
O=C(NC1CNC1)C1CCNC(c2c(O)ccc(Cl)c2Cl)C1 (stereo not drawn) [Compound 126, N-(azetidin-3-yl)-2-(2,3-dichloro-6-hydroxyphenyl)piperidine-4-carboxamide] | < 10 | > 30
NC1CCN(c2cc(Cl)c(Cl)cc2O)CC1 [Compound 8, 2-(4-aminopiperidin-1-yl)-4,5-dichlorophenol] | < 1 | < 30
CN1CCC(c2cc(Cl)c(Cl)cc2O)CC1 [Compound 4, 4,5-dichloro-2-(1-methylpiperidin-4-yl)phenol] | < 1 | < 30
O=C(C1CC(c2c(O)ccc(Cl)c2Cl)CCN1)N1CCNCC1 (stereo not drawn) [Compound 75, 3,4-dichloro-2-[2-(piperazine-1-carbonyl)piperidin-4-yl]phenol] | < 10 | 
OC[C@H]1C[C@@H](c2cc(Cl)c(Cl)cc2O)CCN1 (single isomer, unassigned) [Compound 34] | < 10 | 
NC(=O)[C@@H]1CNCC[C@@H]1c1cc(Cl)c(Cl)cc1O (single isomer, unassigned) [Compound 56] | < 10 | 
Oc1cc(Cl)c(Cl)cc1C1(O)CCNCC1 (single isomer, unassigned) [Compound 59, 4-(4,5-dichloro-2-hydroxyphenyl)piperidin-4-ol] | < 10 | 

Further lines, with some results ahead:

IC50 (Kv1.3 potassium channel) [µM] | Compound | IC50 (hERG channel) [µM]
< 1 | CNC(=O)C[C@H]1C[C@@H](c2c(O)ccc(Cl)c2Cl)CCN1 (relative stereo) [Compound 115, 2-[4-(2,3-dichloro-6-hydroxyphenyl)piperidin-2-yl]-N-methylacetamide] | > 30
< 1 | CNC(=O)C[C@H]1C[C@@H](c2c(O)ccc(Cl)c2Cl)CCN1 (single isomer, unassigned) [Compound 30] | > 30
< 1 | O=S1(=O)CCCN1CC1CC(c2c(O)ccc(Cl)c2Cl)CCN1 (stereo not drawn) [Compound 112, 2-[[4-(2,3-dichloro-6-hydroxyphenyl)piperidin-2-yl]methyl]-1,2-thiazolidine-1,1-dione] | < 30
< 1 | NC(=O)[C@@H]1C[C@H](c2c(O)ccc(Cl)c2Cl)CCN1 (single isomer, unassigned) [Compound 73] | > 30
< 1 | CNC(=O)C1CC(c2c(O)ccc(Cl)c2Cl)CCN1 (stereo not drawn) [Compound 72, 4-(2,3-dichloro-6-hydroxyphenyl)-N-methylpiperidine-2-carboxamide] | > 30
< 1 | O=C(NCC1CC(c2c(O)ccc(Cl)c2Cl)CCN1)C1COC1 [Compound 104, (2R,4S)-rel-N-[[4-(2,3-dichloro-6-hydroxyphenyl)piperidin-2-yl]methyl]oxetane-3-carboxamide] | > 30
< 1 | O=C(C[C@@H]1C[C@H](c2c(O)ccc(Cl)c2Cl)CCN1)N1CCOCC1 (single isomer, unassigned) [Compound 32] | > 30
< 1 | CC(=O)NC[C@H]1C[C@@H](c2c(O)ccc(Cl)c2Cl)CCN1 (single isomer, unassigned) [Compound 86] | > 30
< 1 | NC(=O)C[C@H]1C[C@@H](c2c(O)ccc(Cl)c2Cl)CCN1 (relative stereo) [Compound 108, 2-[(2R,4S)-rel-4-(2,3-dichloro-6-hydroxyphenyl)piperidin-2-yl]acetamide] | > 30
< 1 | NC(=O)CC1CC(c2c(O)ccc(Cl)c2Cl)CCN1 [Compound 101, 2-[(2R,4S)-rel-4-(2,3-dichloro-6-hydroxyphenyl)piperidin-2-yl]acetamide] | > 30
< 1 | CC(=O)NC[C@@H]1CC(c2c(O)ccc(Cl)c2Cl)CCN1 (single isomer, unassigned) [Compound 89] | > 30
< 1 | O=C(NCC1CC(c2c(O)ccc(Cl)c2Cl)CCN1)C1CC1 [Compound 106, (2R,4S)-rel-N-[[4-(2,3-dichloro-6-hydroxyphenyl)piperidin-2-yl]methyl]cyclopropane carboxamide] | > 30
< 1 | O=C(C[C@H]1C[C@@H](c2c(O)ccc(Cl)c2Cl)CCN1)NC1CCC1 (relative stereo) [Compound 111, N-cyclobutyl-(2R,4S)-rel-2-[4-(2,3-dichloro-6-hydroxyphenyl)piperidin-2-yl]acetamide] | < 30
< 1 | CC(=O)NCC1CC(c2c(O)ccc(Cl)c2Cl)CCN1 (stereo not drawn) [Compound 79, N-[[4-(2,3-dichloro-6-hydroxyphenyl)piperidin-2-yl]methyl]acetamide] | > 30
< 1 | CS(=O)(=O)NC[C@@H]1C[C@H](c2c(O)ccc(Cl)c2Cl)CCN1 (single isomer, unassigned) [Compound 107] | > 30
< 1 | CNC(=O)C[C@@H]1C[C@H](c2c(O)ccc(Cl)c2Cl)CCN1 (single isomer, unassigned) [Compound 14] | > 30
< 1 | CS(=O)(=O)NC[C@H]1C[C@@H](c2c(O)ccc(Cl)c2Cl)CCN1 (relative stereo) [Compound 110, (2R,4S)-rel-N-[[4-(2,3-dichloro-6-hydroxyphenyl)piperidin-2-yl]methyl]methanesulfonamide] | > 30
< 10 | CN(C)C(=O)[C@H]1C[C@H](c2c(O)ccc(Cl)c2Cl)CCN1 (relative stereo) [Compound 82, (2R,4R)-rel-4-(2,3-dichloro-6-hydroxyphenyl)-N,N-dimethylpiperidine-2-carboxamide] | 
